Measurements reported in ChEMBL document CHEMBL4831552, “Novel Substituted Piperazine Amide Compounds as Indoleamine-2,3-dioxygenase (IDO) Inhibitors” (ACS Med Chem Lett, 2021).

Biological target: Indoleamine 2,3-dioxygenase 1 (Homo sapiens, UniProt P14902)
Test: Inhibition of IDO1 in IFN-gamma stimulated human HeLa cells incubated for 48 hrs by fluorescence microplate reader assay

Indoleamine 2,3-dioxygenase 1, sequence (P14902 whole entry): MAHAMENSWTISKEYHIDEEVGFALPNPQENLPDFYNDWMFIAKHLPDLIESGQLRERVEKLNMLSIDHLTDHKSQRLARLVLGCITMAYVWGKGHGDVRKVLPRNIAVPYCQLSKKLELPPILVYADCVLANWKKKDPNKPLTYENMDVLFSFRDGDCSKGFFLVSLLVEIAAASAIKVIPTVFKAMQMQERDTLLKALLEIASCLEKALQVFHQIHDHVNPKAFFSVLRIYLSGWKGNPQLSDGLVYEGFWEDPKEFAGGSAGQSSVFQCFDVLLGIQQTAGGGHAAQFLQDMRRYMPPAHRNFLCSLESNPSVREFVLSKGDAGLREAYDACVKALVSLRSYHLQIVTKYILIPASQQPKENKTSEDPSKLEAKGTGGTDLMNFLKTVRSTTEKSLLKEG

IC50 [nM]	Compound
0.59	CC(=O)NC1CCN(C(=O)c2nn(CC(=O)N3CCN(c4cccc(C)c4Cl)CC3)c3c2C2CCCCC2C3)CC1 (configuration not stated)
< 0.51	Cc1cccc(N2CCN(C(=O)Cn3nc(C(=O)N4CCC5(CO)CC4C5)c4c3C[C@H]3C[C@@H]43)CC2)c1C
